Experimental data as given in patent publication US20260365618A1 (priority 2022, published 2026).
“And” between values parts separate entries of the source, which are not always exact repeats. Equal entries are not always repeated. “Also recorded” adds a separate entry of the source. Where two headings read alike, the source gives them in different places.

Key:
[1] = system: F. tularensis subsp. novicida; type: cell-based, Francisella tularensis subsp. novicida
[2] = system: F. tularensis subsp. tularensis; test: microbe, parasite or virus in culture; type: cell-based, Francisella tularensis subsp. tularensis
[3] = system: F. tularensis subsp. tularensis strain SchuS4; type: in vivo, mice
[4] = system: F. tularensis subsp. holarctica; test: microbe, parasite or virus in culture; type: cell-based, Francisella tularensis subsp. holarctica
[5] = system: F. tularensis, total; type: cell-based, Francisella tularensis
[6] = system: F. tularensis subsp. tularensis strain SchuS4; design: species or system mice; conditions: mouse

Row | Compound | activity (in words) ([1]; subsp. novicida) | MIC ([1]; subsp. novicida, N=1, CAMHB + 2% Isovitalex, 35 °C, 48 h) | in vitro activity (in words) [2] | bacterial load in spleen ([3]; animals surviving until day 45 (ciprofloxacin: average of two; Lefamulin: one), spleen) | bacterial load in lung ([3]; one remaining Lefamulin-treated animal, day 45, lung) | activity / MIC values compared with subsp. tularensis (in words) [4] | antimicrobial activity against F. tularensis (in words) [5] | in vitro activity (in words) [5] | efficacy in the murine in vivo model (in words) [6] | animals surviving until day 45 ([6]; in vivo) | effect of oral treatment on survival (in words) ([6]; in vivo) | mortality 5 days after the last treatment ([6]; in vivo) | survival by the end of treatment (Day 15) ([6]; in vivo) | activity (in words) [1] | MIC ([2]; Francisella tularensis, read-out: concentration at which all subsp. tularensis isolates were inhibited)
1 | CC[C@H]1OC(=O)[C@H](C)[C@@H](O[C@H]2C[C@@](C)(OC)[C@@H](O)[C@H](C)O2)[C@H](C)[C@@H](O[C@@H]2O[C@H](C)C[C@H](N(C)C)[C@H]2O)[C@](C)(O)C[C@@H](C)C(=O)[C@H](C)[C@@H](O)[C@]1(C)O [Erythromycin] | inactive | ≥8 µg/mL | slightly weaker activity |  |  |  |  |  |  |  |  |  |  |  | 
2 | C=C[C@]1(C)C[C@@H](OC(=O)CS[C@@H]2CC[C@@H](N)C[C@H]2O)[C@]2(C)[C@H](C)CC[C@]3(CCC(=O)[C@H]32)[C@@H](C)[C@@H]1O [Lefamulin, 14-O-{[(1R, 2R, 4R)-4-amino-2-hydroxy-cyclohexylsulfanyl]-acetyl}-mutilin] |  |  | surprisingly potent activity | 7.7×10^6 CFU/g | 1.3×10^6 CFU/g | slightly higher | active in vitro and in vivo; also recorded: potent inhibition | potent in vitro activity | comparable efficacy | one | effective in prolonging the survival | ~100% | 100% and 90% | Potent activity | ≤ 4 µg/mL
